Measurements from patent publication US12485110B2, “Use of ergothioneine for extending lifespan or improving healthspan” (NANJING NUTRABUILDING BIO-TECH CO., LTD., priority 2022, dated 2025).
Entries after “also recorded” stand apart in the source; their conditions may differ.

How the values were obtained:
C. elegans [1] = experiment: Longevity-focused pathway analysis of differentially expressed genes; assay type: in vivo
From the text: This example describes identification of cellular pathways that are most likely modulated by treatment with Ergothioneine. To accomplish this, the genes differentially expressed after Ergothioneine treatment were first mapped to core established longevity pathways from the literature. Then the mapping was expanded to intersecting and supporting pathways. This placed the transcriptomic data within the context of well-characterized biological pathways, particularly several related to longevity.
Differentially expressed genes (DEGs) were mapped to known physiological pathways and then examined for coherent linkages between pathways related to longevity. These pathways were drawn from WormBase, KEGG, and other published databases and literature. For each condition, the DEGs were filtered on a more relaxed P value cutoff than the initial differential gene expression to capture broad evidence for a pathway from many small changes as opposed to highly significant individual genes of interest. For visualization, pathway genes were given a score based on the fold change weighted by the log of the P value, and this score was color mapped by magnitude and direction to produce the pathway diagram in FIG. 11.
FIG. 11 is a summary of pathway mapping to recognized aging-related pathways for Ergothioneine treatment. Colored score increments indicate degree of up-(red) or down-(blue) regulation weighted by the log of the P value such that each increment approximates one inverse log of P value. Uncolored objects indicate components that were not detected in the data. Top red indicates P value<0.0001 and so on. Solid lines indicate direct pathway connections and dashed lines indicate indirect or multi-step connections. Where lists of differentially expressed genes have been condensed into a module, the number of genes is indicated.
Starting with the canonical longevity pathways, the intersections with supporting pathways was then examined to expand the pool of evidence of whether a pathway is impacted by the treatment.

C. elegans [2] = experiment: Lifespan assay (Automated Lifespan Machine); assay type: in vivo; conditions: for Maximum lifespan: 95th percentile of lifespans; for Median lifespan: N2 wild type, day 0 = day 1 of adulthood; for Mean lifespan: area under survival curve; for Lifespan / survival relative to vehicle control (in words): 5.0 mM (highest treatment group)
From the text: N2 (Bristol) wild type strain has been used in this application.
To prevent chemical modification or metabolism of the test article by the food bacteria, worms were fed on a lawn of UV-killed bacteria (UV-i bacteria). An overnight culture of E. coli strain WP-2 was pelleted, washed, filtered, and irradiated. A suspension of UV-i bacteria was spotted on NGM agar containing Streptomycin to inhibit the growth of contaminating bacteria. The quantity and distribution of food bacteria were calibrated to ensure adequate access to food for the duration of assay while maintaining visibility of the worms.
The ALM used herein is based on the Caenorhabditis elegans lifespan machine published by Stroustrup et. al (Stroustrup, N. et al. The Caenorhabditis elegans Lifespan Machine. Nat Methods 10, 665-670 (2013)), with proprietary modifications to improve temperature stability and image acquisition. The scanner unit consists of a modified EPSON V850 and images are processed and analyzed using the ALM software (see id.). The machine time-of-death calls are trained and validated using the “storyboarding” feature of the ALM software.
The lifespan assay was designed and performed according to published and validated methods (Amrit, F. R. G., Ratnappan, R., Keith, S. A. & Ghazi, A. The C. elegans lifespan assay toolkit. Methods 68, 465-475 (2014)), using a modified version of the Automated Lifespan Machine (Stroustrup, N. et al. The Caenorhabditis elegans Lifespan Machine. Nat Methods 10, 665-670 (2013)). Worms were age synchronized by bleaching and eggs were plated directly onto NGM agar seeded with UV-i bacteria (Day 1, hatch). On Day 3, when the worms had reached the late L4 stage, they were transferred to dishes containing 100 μM 5-Fluorodeoxyuridine (FUdR) to suppress progeny. On day 5, the worms were washed off the dishes, and 30-50 worms were plated on each scanner dish. Plates were immobilized inverted on the bed of an Automated Lifespan Machine which scanned two images per hour of the plates continuously for the next 40 days.
Time of death calls exported from the ALM software was analyzed and plotted using the Lifelines software package developed by Cam Davidson-Pilon et. al (Lifelines Version: v0.25.9). Additional analysis performed using the OASIS2 analysis software (Seong Kyu Han et. al. OASIS 2: online application for survival analysis 2 with features for the analysis of maximal lifespan and healthspan in aging research. Oncotarget. 7:56147-56152. (2016)).
The lifespan assay was initiated by expanding all replicate groups to more than 1000 worms, then synchronizing by bleaching and allowing larval worms to hatch and arrest. To eliminate the effect of bacterial metabolism and growth on lifespan of C. elegans (wild type, and not over express β-amyloid peptide) worms, synchronized worms were only exposed to dead food bacteria. To suppress progeny, worms were transferred to media containing 5-Fluorodeoxyuridine (FUdR) within 54-60 hours post-plating. Worms were inspected 24 and 48 hours after this transfer to confirm infertility. Finally, the worms were inspected for general health and morphology before transferring to scanner plates. The scanner plates were incubated for an additional 2 days and inspected again before loading onto scanners.
To obtain high-resolution lifespan data and eliminate confounding factors such as worm handling and operator bias, lifespan data was collected using an Automated Lifespan Machine (ALM) (Stroustrup, N. et al. The Caenorhabditis elegans Lifespan Machine. Nat Methods 10, 665-670 (2013)). Three biological replicates, derived from synchronizing three independently maintained lines of N2 worms, were distributed across instruments. Images of the worms were then collected for the next 35 days with no interruption or manipulations. Some plates were excluded after quality checks, but plate number and worm count for all replicates exceeded the threshold for statistical significance (Table 1, row 1).

[3] = Ergothioneine treatment, pathway mapping FIG. 11

C[N+](C)(C)[C@@H](Cc1c[nH]c(=S)[nH]1)C(=O)[O-] [Ergo, Ergothioneine]
superoxide dismutase (SOD-2) expression (C. elegans [1]; Ergo treatment): slightly decreased expression
cpr-1 expression (C. elegans [1]; Ergothioneine treatment, autophagy): significantly downregulated
daf-2 expression (C. elegans [1]; [3]): slightly downregulated
daf-16 expression (C. elegans [1]; [3]): slight downregulation
ife-2 (eIF4E) expression (C. elegans [1]; [3]): downregulated
mtl-1 expression (C. elegans [1]; [3]): strongly downregulated
skn-1 expression (C. elegans [1]; Ergothioneine treatment, stress response): slight downregulation
Age in days at 25% mortality (C. elegans [2]; 0.1 mM): 17.97 days
Age in days at 50% mortality (C. elegans [2]; 0.1 mM): 24.16 days
Age in days at 75% mortality (C. elegans [2]; 0.1 mM): 28.15 days
Age in days at 90% mortality (C. elegans [2]; 0.1 mM): 30.83 days
Age in days at 100% mortality (C. elegans [2]; 0.1 mM): 39 days
Dose dependence of lifespan (Kaplan-Meier, FIG. 4A) (C. elegans [2]; 0.1 mM, 0.5 mM and 5.0 mM): dose-dependent increase in lifespan
Maximum lifespan (C. elegans [2]; 0.1 mM): 33.2 days
Median lifespan (C. elegans [2]; 0.1 mM): 24.2 days
Mean lifespan (C. elegans [2]; 0.1 mM): 23.4 days
Age in days at 25% mortality (C. elegans [2]; 0.5 mM): 18.05 days
Age in days at 50% mortality (C. elegans [2]; 0.5 mM): 24.22 days
Age in days at 75% mortality (C. elegans [2]; 0.5 mM): 28.37 days
Age in days at 90% mortality (C. elegans [2]; 0.5 mM): 30.84 days
Age in days at 100% mortality (C. elegans [2]; 0.5 mM): 37.26 days
Maximum lifespan (C. elegans [2]; 0.5 mM): 33.3 days
Median lifespan (C. elegans [2]; 0.5 mM): 24.2 days
Mean lifespan (C. elegans [2]; 0.5 mM): 23.5 days
Age in days at 25% mortality (C. elegans [2]; 5.0 mM): 21.04 days
Age in days at 50% mortality (C. elegans [2]; 5.0 mM): 25.92 days
Age in days at 75% mortality (C. elegans [2]; 5.0 mM): 29.73 days
Age in days at 90% mortality (C. elegans [2]; 5.0 mM): 32.05 days
Age in days at 100% mortality (C. elegans [2]; 5.0 mM): 38.81 days
Lifespan / survival relative to vehicle control (in words) (C. elegans [2]): higher survival than the vehicle control at all timepoints
Lifespan / survival relative to vehicle control (in words) (C. elegans [2]; listed as Ergothioneine): significant positive increase in lifespan; also recorded: statistically significant shift in survival
Lifespan increase compared with Resveratrol positive control (C. elegans [2]; 5.0 mM vs 0.1 mM Resveratrol, log-rank tests): similarly to, but slightly less than the Resveratrol positive control
Maximum lifespan (C. elegans [2]; 5.0 mM): 34.6 days
Median lifespan (C. elegans [2]; 5.0 mM): 25.9 days
Mean lifespan (C. elegans [2]; 5.0 mM): 25.3 days
